Assay results published in patent USRE47302E1 (ONYX THERAPEUTICS INC., priority 2013, dated 2019).
In brackets after ≈: the same amount, converted by molar mass. Like-named read-outs stand apart in the source and are kept apart here.

Experiments:
Solubility pH 7 = conditions: pH 7, aqueous buffer
[1] = molecular target: human 20S immunoproteasome (i20S) (Homo sapiens, UniProt P28062); experiment: 20S proteasome assay, chymotrypsin-like activity (succinyl-Leu-Leu-Val-Tyr-AMC), i20S; type: biochemical; conditions: read-out: LLVY i20S Hu 1 h CONT: IC50, LLVY substrate, 1 h continuous
Source text: Assay buffer consisted of TE buffer [20 mmol/L Tris (pH 8.0), 0.5 mmol/L EDTA] with (20S) or without (cell lysate) 0.03% SDS. Reactions were initiated by enzyme or lysate addition and monitored for AMC product formation at 27jC with a plate-based spectofluorometer (Tecan).

[2] = molecular target: T1, immunoproteasome subunit LMP7 (Homo sapiens, UniProt P28062); experiment: Proteasome active-site ELISA (ProCISE), LMP7, MOLT-4 lysate; type: biochemical
T1 construct: Lysate from the human acute lymphoblastic leukemia cell line, MOLT-4; endogenous in cells; host or cells: MOLT-4
Procedure, shortened: (§1)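 MOLT-4 cell lysate treated 1 h at 25 °C with compound; probe-bound subunits denatured, pulled down on streptavidin beads and detected with subunit-specific antibodies plus HRP chemiluminescence.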

[3] = molecular target: T2, proteasome subunit β5 (beta5) (Homo sapiens, UniProt P28074); experiment: Proteasome active-site ELISA (ProCISE), beta5, MOLT-4 lysate; type: biochemical; conditions: MOLT4 lysate, human, 1 h continuous treatment, 25° C.
T2 construct: Lysate from the human acute lymphoblastic leukemia cell line, MOLT-4; endogenous in cells; host or cells: MOLT-4
Procedure, shortened: as §1

[4] = read-out: ProCISE LMP7 MOLT4 lysate Hu 1 h CONT: IC50, 1 h continuous treatment, 25° C.
[5] = read-out: ProCISE beta5 MOLT4 lysate Hu 1 h CONT: IC50
[6] = MOLT4 lysate, 1 h continuous treatment, 25° C.

solubility (Solubility pH 7) [µg/mL]	IC50 [1] [µM]	IC50 [2, 4] [µM]	IC50 [3, 5] [µM]	IC50 [2, 6] [µM]	IC50 [3] [µM]	SMILES
1980 (≈ 3.56 mM)	0.649	–	–	–	–	C[C@H](NC(=O)CN1CCOCC1)C(=O)N[C@@H](CC1=CCCCC1)C(=O)N[C@@H](Cc1ccccc1)C(=O)[C@@]1(C)CO1 [Compound C-1227]
–	0.011	–	–	–	–	COC[C@H](NC(=O)CN1CCOCC1)C(=O)N[C@@H](Cc1ccc(OC)cc1)C(=O)N[C@@H](Cc1ccccc1)C(=O)[C@@]1(C)CO1 [Compound C-1220]
1190 (≈ 2.05 mM)	0.241	0.51	3.84	–	–	COc1ccc(C[C@H](NC(=O)[C@H](C)NC(=O)NN2CCOCC2)C(=O)N[C@@H](Cc2ccccc2)C(=O)[C@@]2(C)CO2)cc1 [Compound C-1178]
4540 (≈ 7.29 mM)	0.0215	0.0171	0.101	–	–	COc1ccc(C[C@H](NC(=O)[C@@H](NC(=O)CN2CCOCC2)C2COC2)C(=O)N[C@@H](Cc2ccccc2)C(=O)[C@@]2(C)CO2)cc1 [Compound C-1183]
–	1.5	–	–	–	–	COC[C@H](NC(=O)[C@H](C)NC(=O)CN1CCOCC1)C(=O)N[C@@H](Cc1ccccc1)C(=O)[C@@]1(C)CO1 [Compound C-1234]
938 (≈ 1.58 mM)	0.0135	0.0135	0.12	–	–	COc1ccc(C[C@H](NC(=O)[C@H](C)NC(=O)CN2CCOCC2)C(=O)N[C@@H](Cc2ccc(C)cc2)C(=O)[C@@]2(C)CO2)cc1 [Compound C-1181]
2090 (≈ 3.79 mM)	0.252	–	–	–	–	C[C@H](NC(=O)CN1CCOCC1)C(=O)N[C@@H](Cc1ccccn1)C(=O)N[C@@H](Cc1ccccc1)C(=O)[C@@]1(C)CO1 [Compound C-1155]
1860 (≈ 3.13 mM)	–	–	–	0.031	0.289	COc1ccc(C[C@H](NC(=O)[C@H](CC#N)NC(=O)CN2CCOCC2)C(=O)N[C@@H](CC2=CCCC2)C(=O)[C@@]2(C)CO2)cc1 [Compound C-1135, (S)-3-Cyano-N-((S)-1-(((S)-3-(cyclopent-1-en-1-yl)-1-((R)-2-methyloxiran-2-yl)-1-oxopropan-2-yl)amino)-3-(4-methoxyphenyl)-1-oxopropan-2-yl)-2-(2-morpholinoacetamido)propanamide]
979 (≈ 1.76 mM)	–	–	–	0.262	6.63	COc1ccc(C[C@H](NC(=O)[C@@H](C)NC(=O)[C@H]2CC[C@H](O)CC2)C(=O)N[C@@H](CC2CCC2)C(=O)[C@@]2(C)CO2)cc1 [Compound C-1090, (1r,4R)-N-((R)-1-(((S)-1-(((S)-3-cyclobutyl-1-((R)-2-methyloxiran-2-yl)-1-oxopropan-2-yl)amino)-3-(4-methoxyphenyl)-1-oxopropan-2-yl)amino)-1-oxopropan-2-yl)-4-hydroxycyclohexanecarboxamide]
7070 (≈ 12.1 mM)	–	–	–	0.0403	0.561	COc1ccc([C@@H](O)[C@H](NC(=O)[C@H](C)NC(=O)CN2CCOCC2)C(=O)N[C@@H](CC2=CCCC2)C(=O)[C@@]2(C)CO2)cc1 [Compound C-1083, (2S,3R)-N-((S)-3-(cyclopent-1-en-1-yl)-1-((R)-2-methyloxiran-2-yl)-1-oxopropan-2-yl)-3-hydroxy-3-(4-methoxyphenyl)-2-((S)-2-(2-morpholinoacetamido)propanamido)propanamide]
11700 (≈ 20.4 mM)	–	–	–	1.09	21.7	COc1ccc(C[C@H](NC(=O)[C@H](C)NC(=O)CN2CCOCC2)C(=O)N[C@@H](C[C@H]2CCCO2)C(=O)[C@@]2(C)CO2)cc1 [Compound C-1017, (S)-3-(4-methoxyphenyl)-N-((S)-1-((R)-2-methyloxhan-2-yl)-1-oxo-3-((R)-tetrahydrofuran-2-yl)propan-2-yl)-2-((S)-2-(2-morpholinoacetamido)propanamido)propanamide]
1760 (≈ 3.08 mM)	–	–	–	0.0764	0.793	Cc1ccc(C[C@H](NC(=O)[C@H](C)NC(=O)CN2CCOCC2)C(=O)N[C@@H](CC2=CCCC2)C(=O)[C@@]2(C)CO2)cc1O [Compound C-1129, (S)-N-((S)-3-(cyclopent-1-en-1-yl)-1-((R)-2-methyloxiran-2-yl)-1-oxopropan-2-yl)-3-(3-hydroxy-4-methylphenyl)-2-((S)-2-(2-morpholinoacetamido)propanamido) propanamide]
960 (≈ 1.64 mM)	–	–	–	0.0498	0.284	CC[C@H](NC(=O)CN1CCOCC1)C(=O)N[C@@H](Cc1ccc(OC)cc1)C(=O)N[C@@H](CC1CCCC1)C(=O)[C@@]1(C)CO1 [Compound C-1106, (S)-N-((S)-1-(((S)-3-cyclopentyl-1-((R)-2-methyloxiran-2-yl)-1-oxopropan-2-yl)amino)-3-(4-methoxyphenyl)-1-oxopropan-2-yl)-2-(2-morpholinoacetamido)butanamide]
1300 (≈ 2.35 mM)	–	0.119	0.526	–	–	COc1ccc(C[C@H](NC(=O)[C@H](C)NC(=O)CC2COC2)C(=O)N[C@@H](Cc2ccccc2)C(=O)[C@@]2(C)CO2)cc1 [Compound C-1179]
4300 (≈ 7.3 mM)	–	–	–	0.106	3.89	COc1ccc(C[C@H](NC(=O)[C@H](C)NC(=O)CN2CCOCC2)C(=O)N[C@@H](CC2CCCC2)C(=O)[C@H]2CO2)cc1OC [Compound C-1071, (S)-N-((S)-3-cyclopentyl-1-((R)-oxiran-2-yl)-1-oxopropan-2-yl)-3-(3,4-dimethoxyphenyl)-2-((S)-2-(2-morpholinoacetamido)propanamido)propanamide]
6260 (≈ 10.7 mM)	–	–	–	0.0438	0.407	COc1ccc(C[C@H](NC(=O)[C@H](C)NC(=O)CN2CCC(O)CC2)C(=O)N[C@@H](CC2=CCCC2)C(=O)[C@@]2(C)CO2)cc1 [Compound C-1118, (S)-N-((S)-3-(Cyclopent-1-en-1-yl)-1-((R)-2-methyloxiran-2-yl)-1-oxopropan-2-yl)-2-((S)-2-(2-(4-hydroxypiperidin-1-yl)acetamido)propanamido)-3-(4-methoxyphenyl)propanamide]
7720 (≈ 12.5 mM)	–	–	–	0.0976	0.566	C[C@H](NC(=O)CN1CCOCC1)C(=O)N[C@@H](Cc1ccc(S(C)(=O)=O)cc1)C(=O)N[C@@H](CC1=CCCC1)C(=O)[C@@]1(C)CO1 [Compound C-1125, (S)-N-((S)-3-(cyclopent-1-en-1-yl)-1-((R)-2-methyloxiran-2-yl)-1-oxopropan-2-yl)-3-(4-(methylsulfonyl)phenyl)-2-((S)-2-(2-morpholinoacetamido)propanamido)propanamide]
2660 (≈ 4.55 mM)	–	–	–	0.0346	1.48	COc1ccc(C[C@H](NC(=O)[C@@H](C)NC(=O)[C@H]2CC[C@H](O)CC2)C(=O)N[C@@H](CC2=CCCC2)C(=O)[C@@]2(C)CO2)cc1O [Compound C-1065, (1r,4R)-N-((R)-1-(((S)-1-(((S)-3-(cyclopent-1-en-1-yl)-1-((R)-2-methyloxiran-2-yl)-1-oxopropan-2-yl)amino)-3-(3-hydroxy-4-methoxyphenyl)-1-oxopropan-2-yl)amino)-1-oxopropan-2-yl)-4-hydroxycyclohexanecarboxamide]
8230 (≈ 13.3 mM)	–	–	–	0.0506	2.94	COc1ccc([C@@H](O)[C@H](NC(=O)[C@H](CO)NC(=O)CN2CCOCC2)C(=O)N[C@@H](CC2=CCCCC2)C(=O)[C@@]2(C)CO2)cc1 [Compound C-1116, (2S,3R)-N-((S)-3-(Cyclohex-1-en-1-yl)-1-((R)-2-methyloxiran-2-yl)-1-oxopropan-2-yl)-3-hydroxy-2-((S)-3-hydroxy-2-(2-morpholinoacetamido)propanamido)-3-(4-methoxyphenyl)propanamide]
917 (≈ 1.48 mM)	–	–	–	0.0252	0.868	C[C@@H](NC(=O)[C@H]1CC[C@H](O)CC1)C(=O)N[C@@H](Cc1ccc(S(C)(=O)=O)cc1)C(=O)N[C@@H](CC1=CCCC1)C(=O)[C@@]1(C)CO1 [Compound C-1096, (1r,4R)-N-((R)-1-(((S)-1-(((S)-3-(cyclopent-1-en-1-yl)-1-((R)-2-methyloxiran-2-yl)-1-oxopropan-2-yl)amino)-3-(4-(methylsulfonyl)phenyl)-1-oxopropan-2-yl)amino)-1-oxopropan-2-yl)-4-hydroxycyclohexanecarboxamide]
8380 (≈ 12.9 mM)	–	–	–	0.217	4.34	C[C@]1(C(=O)[C@H](CC2=CCCCC2)NC(=O)[C@H](Cc2ccc(S(C)(=O)=O)cc2)NC(=O)[C@H](CO)NC(=O)CN2CCOCC2)CO1 [Compound C-1110, (S)-N-((S)-3-(Cyclohex-1-en-1-yl)-1-((R)-2-methyloxiran-2-yl)-1-oxopropan-2-yl)-2-((S)-3-hydroxy-2-(2-morpholinoacetamido)propanamido)-3-(4-(methylsulfonyl)phenyl)propanamide]
–	0.39	–	–	–	–	C[C@H](NC(=O)CN1CCOCC1)C(=O)N[C@@H](CC1CCCCC1)C(=O)N[C@@H](Cc1ccccc1)C(=O)[C@@]1(C)CO1 [Compound C-1235]
1380 (≈ 2.4 mM)	–	–	–	0.0124	0.423	C[C@H](NC(=O)CN1CCOCC1)C(=O)N[C@@H](Cc1ccc2c(c1)OCO2)C(=O)N[C@@H](CC1CCCC1)C(=O)[C@H]1CO1 [Compound C-1060, (S)-3-(benzo[d][1,3]dioxol-5-yl)-N-((S)-3-cyclopentyl-1-((R)-oxiran-2-yl)-1-oxopropan-2-yl)-2-((S)-2-(2-morpholinoacetamido)propanamido)propanamide]
